We go through eight compounds from ChEMBL document CHEMBL1201862, “PubChem BioAssay data set” (2004).

Structures are written as SMILES. “And” between values parts separate entries of the source, which are not always exact repeats. Equal values may be shown once.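 All cell lines were grown in 96-well plates and treated with compound for 48 hours. GI50 is the concentration that inhibits growth by half.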 The source made the active and inactive calls. Rule as the data show it: active = GI50 up to about 1.1 µM and inactive = higher.

Some test systems named below: CAKI-1; UO-31; HOP-62; RXF 393; SK-MEL-2; RPMI-8226; HCT-15; SF-295; 786-0; PC-3; IGROV-1; Hs-578T; COLO 205; LOX IMVI; MOLT-4; TK-10; NCI/ADR-RES; MDA-MB-435; MDA-MB-231; SK-OV-3.
Common to all, as to assay: NCI-60 cell line screen, 48 h

`Cc1c(S(=O)(=O)N/C(=N\O)Nc2ccc(Cl)c(Cl)c2)sc2ccc(Cl)cc12`: the GI50 with CAKI-1 was 18.5 µM (inactive); with UO-31, 20.3 µM (inactive); in the test on HOP-62, 18.5 µM (inactive); in the test with RXF 393, 16.9 µM (inactive); in the test with SK-MEL-2, 18.9 µM (inactive); in the test with RPMI-8226, 34.7 µM (inactive). For the same compound, the GI50 was 17.1 µM in the test with HCT-15; 16 µM (inactive) in the test with SF-295; 19.7 µM (inactive) in the test on 786-0; 18.6 µM (inactive) in the test with PC-3; 17.5 µM (inactive) in the test with IGROV-1; 28.6 µM (inactive) in the test on Hs-578T. For the same compound, the GI50 was 17.9 µM (inactive) in the test on COLO 205; 20.7 µM (inactive) in the test with LOX IMVI; 34.1 µM (inactive) with MOLT-4; 17.7 µM (inactive) with TK-10; 18.7 µM (inactive) in the test with NCI/ADR-RES; 17.9 µM (inactive) with MDA-MB-435. The GI50 with MDA-MB-231 was 23.8 µM (inactive).
Consider `CC1(C=O)CCC23COC4(CCC5C6(C)CCC(OC7OCC(OC8OC(CO)C(O)C(OC9OC(CO)C(O)C(O)C9O)C8OC8OCC(O)C(O)C8O)C(O)C7OC7OC(CO)C(O)C(O)C7O)C(C)(C)C6CCC5(C)C4(C)CC2O)C3C1` (configuration not stated), for which the GI50 with CAKI-1 is 1.12 µM (active); in the test on UO-31, 1.48 µM (inactive); in the test with HOP-62, 2.13 µM (inactive); with SK-MEL-2 it was 1.57 µM (inactive); in the test with RPMI-8226 it was 1.71 µM (inactive); with SK-OV-3, 1.28 µM (inactive). Moreover, the GI50 in the test on HCT-15 is 1.53 µM; in the test with SF-295, 0.908 µM (active); in the test on 786-0, 1.2 µM (inactive); in the test on PC-3, 1.38 µM (inactive); in the test with IGROV-1 it was 1.42 µM (inactive); in the test on Hs-578T it was 1.5 µM (inactive). Besides, the GI50 was 1.3 µM (inactive) with COLO 205; 1.24 µM (inactive) with LOX IMVI; 0.367 µM (active) in the test on MOLT-4; 1.89 µM (inactive) with TK-10; 0.264 µM (active) in the test on NCI/ADR-RES; 1.48 µM (inactive) in the test on MDA-MB-435. Further, the GI50 in the test with MDA-MB-231 is 0.32 µM (active).
`O=C1CC(C(OCc2ccccc2)C(OCc2ccccc2)C(COCc2ccccc2)OCc2ccccc2)CC(=O)N1` (configuration not stated): the GI50 in the test with RXF 393 was 42.9 µM (inactive) and 29.6 µM (inactive); in the test with RPMI-8226 it was > 75 µM (inactive); in the test on HCT-15, greater than 75 µM; in the test on SF-295, > 75 µM (inactive); in the test on 786-0 it was > 75 µM (inactive); in the test on PC-3, > 75 µM (inactive). Also, the GI50 with IGROV-1 was > 100 µM (inactive); in the test with Hs-578T, > 75 µM (inactive) and 88.7 µM (inactive); in the test on COLO 205, > 100 µM (inactive); in the test with LOX IMVI, > 75 µM (inactive); with TK-10 it was > 75 µM (inactive); in the test with NCI/ADR-RES it was > 75 µM (inactive). The GI50 with MDA-MB-435 is > 75 µM (inactive); with MDA-MB-231, 71.4 µM (inactive).
In the case of `O=C(O)c1cc2cc(c1)/N=C/c1ccccc1OCc1cccc(n1)COc1ccccc1/C=N/2`, the GI50 in the test with UO-31 was > 25 µM (inactive); in the test on HOP-62, > 25 µM (inactive); in the test on RXF 393, > 25 µM (inactive); in the test with SK-MEL-2, 23.8 µM (inactive); in the test with RPMI-8226, 7.41 µM (inactive); in the test with SK-OV-3, > 25 µM (inactive). The GI50 was 8.45 µM in the test with HCT-15; 6.24 µM (inactive) in the test on SF-295; 10.6 µM (inactive) with 786-0; 24 µM (inactive) with PC-3; 20.4 µM (inactive) in the test on IGROV-1; 4.94 µM (inactive) in the test on Hs-578T. The GI50 with COLO 205 is > 25 µM (inactive); in the test on MOLT-4, 20 µM (inactive); in the test on TK-10 it was 13.6 µM (inactive); in the test on NCI/ADR-RES it was 5.93 µM (inactive); with MDA-MB-435 it was 3.78 µM (inactive); with MDA-MB-231 it was > 25 µM (inactive).
For `CCOC(=O)c1cc(=O)c2ccnc3c2n1CCS3`, the GI50 was > 100 µM (inactive) in the test with CAKI-1; 57.5 µM (inactive) in the test with UO-31; 48.5 µM (inactive) in the test with HOP-62; > 100 µM (inactive) in the test with SK-MEL-2; > 100 µM (inactive) with SK-OV-3; greater than 100 µM with HCT-15. Also, the GI50 is > 100 µM (inactive) with SF-295; > 100 µM (inactive) in the test with 786-0; > 100 µM (inactive) in the test on PC-3; 40.6 µM (inactive) in the test on IGROV-1; > 100 µM (inactive) with Hs-578T; > 100 µM (inactive) in the test with COLO 205. Also, the GI50 was 57.4 µM (inactive) in the test on LOX IMVI; > 100 µM (inactive) in the test with MOLT-4; > 100 µM (inactive) with TK-10; > 100 µM (inactive) in the test with NCI/ADR-RES; > 100 µM (inactive) with MDA-MB-435; > 100 µM (inactive) in the test with MDA-MB-231.
`CC(C)(C)OC(=O)NC(CSCc1ccc(C(=O)c2ccccc2)cc1)C(=O)O` (configuration not stated): the GI50 was > 100 µM (inactive) with CAKI-1; > 100 µM (inactive) in the test with UO-31; > 100 µM (inactive) with HOP-62; > 100 µM (inactive) with RXF 393; 61.5 µM (inactive) with RPMI-8226; greater than 100 µM in the test on HCT-15. The GI50 in the test with SF-295 is > 100 µM (inactive); in the test with 786-0, > 100 µM (inactive); in the test on PC-3, > 100 µM (inactive); with IGROV-1, > 100 µM (inactive); in the test on Hs-578T it was 34.9 µM (inactive); in the test on COLO 205, > 100 µM (inactive). For the same compound, the GI50 in the test on LOX IMVI, with MOLT-4, in the test with TK-10, with NCI/ADR-RES, in the test on MDA-MB-435 and with MDA-MB-231 was > 100 µM (inactive) each time.
Take `O=C(Nc1ccn(C2CC(O)C(CO)O2)c(=O)n1)c1ccccc1` (configuration not stated): the GI50 in the test with CAKI-1 was > 100 µM (inactive); in the test with HOP-62 it was > 100 µM (inactive); with SK-MEL-2 it was > 100 µM (inactive); in the test on RPMI-8226 it was > 100 µM (inactive); with SK-OV-3, > 100 µM (inactive); with HCT-15 it was greater than 100 µM. Besides, the GI50 in the test with SF-295, with 786-0, in the test on PC-3, in the test on IGROV-1, in the test with Hs-578T and with COLO 205 was > 100 µM (inactive) each time. In addition, the GI50 in the test with LOX IMVI, with MOLT-4, in the test on TK-10, in the test with NCI/ADR-RES, in the test on MDA-MB-435 and in the test with MDA-MB-231 was > 100 µM (inactive) throughout.
As for `Cc1[nH]c2ncn3[nH]c(=S)nc3c2c1Cc1ccccc1`, the GI50 with CAKI-1 was > 100 µM (inactive); with UO-31 it was > 100 µM (inactive); with HOP-62, > 100 µM (inactive); with RXF 393 it was 26.5 µM (inactive); in the test on SK-MEL-2 it was > 100 µM (inactive); with SK-OV-3, > 100 µM (inactive). Moreover, the GI50 was greater than 100 µM in the test with HCT-15; > 100 µM (inactive) with SF-295; > 100 µM (inactive) with 786-0; > 100 µM (inactive) in the test with PC-3; 48.1 µM (inactive) in the test on IGROV-1; 62.7 µM (inactive) in the test with Hs-578T. The GI50 in the test with COLO 205, in the test with MOLT-4, in the test with TK-10, with NCI/ADR-RES, in the test with MDA-MB-435 and in the test with MDA-MB-231 was > 100 µM (inactive) throughout.
